Assay results: paper PMC7175277, “Hydroxylamine Analogue of Agmatine: Magic Bullet for Arginine Decarboxylase” (Biomolecules, 2020)
“Also recorded” adds a separate entry of the source.

How the values were obtained:
[1] = molecular target: T1, E. coli ADC (Escherichia coli, UniProt P21170); assay: E. coli ADC activity assay (HPLC of agmatine); type: biochemical; settings: 0.1 mM PLP; 15 min preincubation; 0.15 mM L-Arg
T1 construct: The kinetic parameters determined for the partially purified biosynthetic ADC from E. coli; endogenous in cells; host or cells: E. coli DH5α (39-53% ammonium sulphate fraction of the lysate, desalted)
T1 sequence (P21170 1-658): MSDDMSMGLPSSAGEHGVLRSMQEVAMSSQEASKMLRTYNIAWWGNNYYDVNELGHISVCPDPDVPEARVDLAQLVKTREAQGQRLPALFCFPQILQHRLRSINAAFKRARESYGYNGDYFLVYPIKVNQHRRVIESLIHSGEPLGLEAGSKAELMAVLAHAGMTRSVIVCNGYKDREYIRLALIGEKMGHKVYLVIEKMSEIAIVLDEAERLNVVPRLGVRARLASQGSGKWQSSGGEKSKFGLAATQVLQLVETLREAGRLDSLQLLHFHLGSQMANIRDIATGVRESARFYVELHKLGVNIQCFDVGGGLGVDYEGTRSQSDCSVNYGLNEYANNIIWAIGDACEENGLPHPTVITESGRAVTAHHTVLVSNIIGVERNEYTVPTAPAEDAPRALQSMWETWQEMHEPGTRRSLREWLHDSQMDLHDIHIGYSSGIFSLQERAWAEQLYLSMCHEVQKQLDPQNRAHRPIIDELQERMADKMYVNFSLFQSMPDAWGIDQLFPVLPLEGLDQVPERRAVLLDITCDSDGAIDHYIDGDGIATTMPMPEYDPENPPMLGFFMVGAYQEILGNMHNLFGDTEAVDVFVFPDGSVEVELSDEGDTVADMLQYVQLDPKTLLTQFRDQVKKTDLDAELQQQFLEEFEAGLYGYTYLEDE
Method: The purification was performed using a modified procedure of earlier publication. E. coli strain DH5α was grown in Luria-Bertani broth at +37 °C with shaking (200 rpm) overnight. The cells were collected by centrifugation and the pellet was homogenized with Potter-Elvehjem in 10 volumes (w/v) of ice-cold 50 mM Tris-HCl pH 7.4, 1 mM DTT. The cell debris was removed by centrifugation at 12,000 g for 30 min at +4 °C. Solid (NH4)2SO4 was added to the supernatant, and the pellet precipitating between 39% and 53% saturation was separated. The precipitate was resuspended in ice-cold buffer containing 50 mM Tris-HCl pH 7.4 and 1 mM DTT and desalted by passage through Sephadex G-25 column (NAP-10 column, GE Healthcare). The protein concentration was measured with Bio-Rad protein reagent, and the partially purified enzyme preparation was mixed with 20% glycerol and aliquoted for storage at −80 °C.
[…] The ODC reaction mixture contained 50 mM Tris-HCl pH 7.8, 1 mM EDTA, 2.4 mM DTT, 0.1 mM PLP and 20 μg of partially purified enzyme preparation. The mixtures were either preincubated or not preincubated for 15 min at +40 °C in the presence of the inhibitor, after which the reaction was started by the addition of 18 μL of 10× substrate (L-Arg for ADC and L-Orn for ODC). After incubation for 30 min (ADC) or 20 min (ODC) at +40 °C, 20 μL of 50% sulphosalicylic acid containing 50 μM diaminoheptane (internal standard) was added and the samples were analyzed for the content of agmatine (ADC) and Put (ODC) with HPLC as described previously. The kinetic parameters and IC50 values were determined with the aid of GraphPad Prism version 5.03 using nonlinear regression analysis.

[2] = test system: Acremonium chrysogenum wild-type (WT) ATCC 11550; assay: Fungal growth inhibition (drop-dilution, CD agar), WT strain; type: cell-based
From the text: (§1) Two strains of Acremonium chrysogenum were used in this study: the wild-type (Brotzu) isolate ATCC 11550 (WT) and high-cephalosporin-yielding RNCM F-4081D (HY), derived from the WT [37]. The cultivation conditions were the same as previously described. The filamentous fungi were cultivated on agarized Czapek-Dox (CD) medium (30 g/L sucrose, 2 g/L NaNO3, 1 g/L K2HPO4, 0.5 g/L MgSO4×7 H2O, 0.5 g/L KCl, 0.01 g/L FeSO4×7 H2O, 20 g/L agar, pH 7.0–7.4). To determine the toxic effect of AO-Agm, APA, DFMA and DFMO on the growth of fungal cells the drop-dilution method was used with some modifications as described earlier. Cells were collected from agar slants and diluted with 0.9% NaCl solution up to OD600 = 0.5 (basic concentration), followed by serial tenfold dilutions with the same solution. […] The inoculated Petri dishes were incubated for 21 days at 26 °C. The inhibitory effects of the compounds were measured every three days after inoculation and evaluated by measuring the ratio of colony growth on agarized CD medium supplemented with AO-Agm, APA, DFMA, or DFMO to the growth in the control (agarized CD medium without any additions). The formula: growth inhibition % = [(Dc − Dt)/Dc] × 100, where Dc indicates the colony diameter in control set, and Dt indicates the colony diameter in the treatment set that was used to determine the percent of fungal growth inhibition. The data recorded were measured in triplicate and repeated at least twice.

[3] = test system: Acremonium chrysogenum high-cephalosporin-yielding (HY) RNCM F-4081D; assay: Fungal growth inhibition (drop-dilution, CD agar), HY strain; type: cell-based
From the text: as §1

[4] = test system: mammalian ODC; parameters: method as in PMID 3841480, PMID 1573631; settings: cited from earlier work
[5] = parameters: method as in PMID 7896733; settings: 48 h; absence of amine oxidase inhibitor; cited from earlier work
[6] = molecular target: T1, E. coli ADC; parameters: method as in PMID 4571773; settings: PLP binding to the apo-enzyme; cited from earlier work
[7] = molecular target: T2, mouse kidney ODC (Mus musculus, UniProt P00860); parameters: method as in PMID 6810923; settings: reversibly bound PLP; cited from earlier work
T2 construct: Aliquots of the supernatant were mixed with 1–5000 μM of AO-Agm and the ODC assay was carried out; from tissue; host or cells: C57Bl/6J male mouse kidney, 12,000 g supernatant of the homogenate
T2 sequence (P00860 1-461): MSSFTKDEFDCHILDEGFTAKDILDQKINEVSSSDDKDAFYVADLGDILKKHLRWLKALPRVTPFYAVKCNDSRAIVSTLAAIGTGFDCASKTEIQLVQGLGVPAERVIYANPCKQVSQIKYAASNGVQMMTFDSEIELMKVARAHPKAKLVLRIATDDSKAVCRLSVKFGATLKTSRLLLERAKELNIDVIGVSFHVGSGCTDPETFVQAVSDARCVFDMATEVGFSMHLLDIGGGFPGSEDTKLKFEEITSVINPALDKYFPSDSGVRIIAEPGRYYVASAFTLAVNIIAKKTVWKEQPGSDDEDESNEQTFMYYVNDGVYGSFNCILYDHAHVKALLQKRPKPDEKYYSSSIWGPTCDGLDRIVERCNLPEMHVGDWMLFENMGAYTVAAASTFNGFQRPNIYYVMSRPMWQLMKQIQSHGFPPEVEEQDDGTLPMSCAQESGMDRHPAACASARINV

Structure (SMILES)	ADC inhibition relative to AO-Agm (weaker) [1]	IC50 [1]	Growth of WT strain ([2]; 5 mM inhibitor)	Effect of 0.5 mM Spd on the growth arrest caused by the inhibitor ([2]; 5 mM inhibitor + 0.5 mM Spd)	inhibition at 1000 µM ([2]; Hapsidospora chrysogena, ATCC11550, 1 mM inhibitor, 17th day after inoculation)	inhibition at 5000 µM ([2]; Hapsidospora chrysogena, ATCC11550, 336 h, 5 mM inhibitor, 14 days after inoculation on CD medium)	Growth inhibition compared with 5 mM ([3]; HY strain, 1 mM inhibitor)	inhibition at 5000 µM ([3]; Hapsidospora chrysogena, 336 h, read-out: Growth inhibition)	Concentrations inhibiting mammalian ODC [4]	Level remaining in the cell culture medium, of its initial concentration [5]	Km [6]	Km [7]
NCCCON [APA, 1-aminooxy-3-aminopropane]	1000 times	33 ± 2 µM	completely inhibited	reversed the growth arrest	~95%	100%	much less effective	44%	nanomolar inhibitor; also recorded: nanomolar concentrations	about 10%	–	–
Cc1ncc(COP(=O)(O)O)c(C=O)c1O [PLP, pyridoxal-5’-phosphate]	–	–	–	–	–	–	–	–	–	–	0.6 µM	0.3 µM
